Source: patent US20190224278A1, “PRODUCING METHOD OF ANTIMICROBIAL PEPTIDE WITH ENHANCED ADHESION AND USES THEREOF” (Intelligent Synthetic Biology Center, priority 2018, published 2019)
≈ marks a conversion by molar mass, not a printed value. Non-standard residues stand in square brackets, D forms with d. Residues, ends and D or L forms follow the SMILES beside them. No end group written: not given here. Dopa = N[C@@H](Cc1ccc(O)c(O)c1)C(=O)O

Key:
[1] = tested on: E. coli; assay type: cell-based, Escherichia coli; conditions: 18 h
Procedure: In order to confirm the antimicrobial activity of the adhesive antimicrobial peptides prepared in Experimental Example 1-1, the minimal inhibitory concentration (MIC) which inhibits the growth of E. coli was identified by using a method disclosed in Nature Protocols. 2008; 3(2):163-175. Briefly, a culture medium in which a single colony had been grown for 16 hours was subcultured and grown until OD600 reached 0.4 to 0.6, which corresponds to logarithmic growth. Thereafter, the number of cells was calculated according to the OD values, and the number of cells was set at 10^6 cell/mL. When a Mueller-Hinton Broth (MHB) was loaded to a polypropylene 96-well plate, 90 μL was added to the first row of the plate and 100 μL was added to the control wells, and 50 μL was added to the remaining wells. Thereafter, the peptide solution was prepared at a concentration of […], and 10 μL thereof was added to each well of the first row. The peptide solution was mixed with the medium using a multi-pipette, and then 50 μL was transferred to the second row (B). At this time, the peptide was diluted to half concentration, and the peptide was transferred up to the seventh row by the same method so that the peptide (64 μM to 1 μM) was dissolved in the medium. 10^6 cell/mL of Escherichia coli, which had been prepared previously, was added thereto, and then the plate was cultured for 18 hours. Thus, the final concentration range of the peptide used in the experiment became 32 μM to 0.5 μM. After culturing for 18 hours, the OD values were measured using a microplate reader (Tecan i-control 200 pro), and the MIC values were identified.

[2] = tested on: E. coli; test: Antimicrobial activity of the coated surface (modified ISO 22196 / colony counting assay); assay type: cell-based, Escherichia coli; conditions: coated on polystyrene at 25, 50 and 100 μM, E. coli cultured 24 hours
Procedure: In order to confirm the antimicrobial activity in the state where the antimicrobial peptides are coated, the experiment was carried out by an ISO 22196 method in which some steps were changed. Based on the results of Experimental Example 2-1 above, the experiment on the antimicrobial activity was carried out by only using the NKCs to which 3, 5, and 7 DOPA moieties were conjugated (i.e., NKC-L-O3, NKC-L-O5, NKC-L-O7, respectively). Each of NKC-L-O3, NKC-L-O5, and NKC-L-O7 was coated on a polystyrene surface at different concentrations of 25 μM, 50 μM, and 100 μM, and then E. coli in logarithmic phase (10^6 cell/mL) was cultured on the coated surface for 24 hours. After the culture, the culture medium was diluted to a certain concentration and smeared on a plate, and the CFU values were confirmed after 16 hours. The E. coli death level, calculated by comparing the above CFU values with CFU values of the uncoated surface, is represented using the following equation.
Antimicrobial Activity=(1−CFU of Surface of Sample/CFU of Control)×100
In order to measure the antimicrobial activity of NKC-L-O5 (100 μM) according to coating time, a colony counting assay was carried out. […] The plate was cultured at 37° C. for 16 hours, and then the colonies were counted.

Compound: CC[C@H](C)[C@H](NC(=O)CNC(=O)[C@H](CCCCN)NC(=O)[C@H](CCCCN)NC(=O)[C@H](CCC(N)=O)NC(=O)[C@H](CC(C)C)NC(=O)[C@H](CCCCN)NC(=O)[C@H](CC(C)C)NC(=O)[C@H](CC(C)C)NC(=O)[C@H](CCCCN)NC(=O)[C@H](CCCCN)NC(=O)[C@H](CC(C)C)NC(=O)[C@H](CC(C)C)NC(=O)[C@H](CCCCN)NC(=O)[C@H](CCSC)NC(=O)[C@H](C)NC(=O)[C@H](CCCCN)NC(=O)[C@@H]1CCCN1C(=O)[C@H](C)N)C(=O)NCC(=O)NCC(=O)NCC(=O)NCC(=O)N[C@@H](CO)C(=O)NCC(=O)NCC(=O)NCC(=O)NCC(=O)N[C@@H](CO)C(=O)N[C@@H](Cc1ccc(O)c(O)c1)C(=O)O [NKC-(G4S)2-DOPA1] (HELM PEPTIDE1{A.P.K.A.M.K.L.L.K.K.L.L.K.L.Q.K.K.G.I.G.G.G.G.S.G.G.G.G.S.[O=C(O)[C@H](Cc1ccc(O)c(O)c1)N[*:1]]}$$$$V2.0; N-terminus and C-terminus assumed)
- MIC [1]: 8 µM (≈ 23.7 µg/mL)

Compound: CC[C@H](C)[C@H](NC(=O)CNC(=O)[C@H](CCCCN)NC(=O)[C@H](CCCCN)NC(=O)[C@H](CCC(N)=O)NC(=O)[C@H](CC(C)C)NC(=O)[C@H](CCCCN)NC(=O)[C@H](CC(C)C)NC(=O)[C@H](CC(C)C)NC(=O)[C@H](CCCCN)NC(=O)[C@H](CCCCN)NC(=O)[C@H](CC(C)C)NC(=O)[C@H](CC(C)C)NC(=O)[C@H](CCCCN)NC(=O)[C@H](CCSC)NC(=O)[C@H](C)NC(=O)[C@H](CCCCN)NC(=O)[C@@H]1CCCN1C(=O)[C@H](C)N)C(=O)NCC(=O)NCC(=O)NCC(=O)NCC(=O)N[C@@H](CO)C(=O)NCC(=O)NCC(=O)NCC(=O)NCC(=O)N[C@@H](CO)C(=O)N[C@@H](Cc1ccc(O)c(O)c1)C(=O)N[C@@H](Cc1ccc(O)c(O)c1)C(=O)N[C@@H](Cc1ccc(O)c(O)c1)C(=O)O [NKC-(G4S)2-DOPA3] (H-APKAMKLLKKLLKLQKKGIGGGGSGGGGS[Dopa][Dopa][Dopa]-OH; N-terminus and C-terminus assumed)
- MIC [1]: 8 µM (≈ 26.5 µg/mL)
- antimicrobial activity in coated state, dependence [2]: antimicrobial activity dependent on the number of DOPA moieties and the concentration of the NKC

Compound: CC[C@H](C)[C@H](NC(=O)CNC(=O)[C@H](CCCCN)NC(=O)[C@H](CCCCN)NC(=O)[C@H](CCC(N)=O)NC(=O)[C@H](CC(C)C)NC(=O)[C@H](CCCCN)NC(=O)[C@H](CC(C)C)NC(=O)[C@H](CC(C)C)NC(=O)[C@H](CCCCN)NC(=O)[C@H](CCCCN)NC(=O)[C@H](CC(C)C)NC(=O)[C@H](CC(C)C)NC(=O)[C@H](CCCCN)NC(=O)[C@H](CCSC)NC(=O)[C@H](C)NC(=O)[C@H](CCCCN)NC(=O)[C@@H]1CCCN1C(=O)[C@H](C)N)C(=O)NCC(=O)NCC(=O)NCC(=O)NCC(=O)N[C@@H](CO)C(=O)NCC(=O)NCC(=O)NCC(=O)NCC(=O)N[C@@H](CO)C(=O)N[C@@H](Cc1ccc(O)c(O)c1)C(=O)N[C@@H](Cc1ccc(O)c(O)c1)C(=O)N[C@@H](Cc1ccc(O)c(O)c1)C(=O)N[C@@H](Cc1ccc(O)c(O)c1)C(=O)N[C@@H](Cc1ccc(O)c(O)c1)C(=O)O [NKC-(G4S)2-DOPA5] (H-APKAMKLLKKLLKLQKKGIGGGGSGGGGS[Dopa][Dopa][Dopa][Dopa][Dopa]-OH)
- MIC [1]: 8 µM (≈ 29.4 µg/mL)

Compound: CC[C@H](C)[C@H](NC(=O)CNC(=O)[C@H](CCCCN)NC(=O)[C@H](CCCCN)NC(=O)[C@H](CCC(N)=O)NC(=O)[C@H](CC(C)C)NC(=O)[C@H](CCCCN)NC(=O)[C@H](CC(C)C)NC(=O)[C@H](CC(C)C)NC(=O)[C@H](CCCCN)NC(=O)[C@H](CCCCN)NC(=O)[C@H](CC(C)C)NC(=O)[C@H](CC(C)C)NC(=O)[C@H](CCCCN)NC(=O)[C@H](CCSC)NC(=O)[C@H](C)NC(=O)[C@H](CCCCN)NC(=O)[C@@H]1CCCN1C(=O)[C@H](C)N)C(=O)NCC(=O)NCC(=O)NCC(=O)NCC(=O)N[C@@H](CO)C(=O)NCC(=O)NCC(=O)NCC(=O)NCC(=O)N[C@@H](CO)C(=O)N[C@@H](Cc1ccc(O)c(O)c1)C(=O)N[C@@H](Cc1ccc(O)c(O)c1)C(=O)N[C@@H](Cc1ccc(O)c(O)c1)C(=O)N[C@@H](Cc1ccc(O)c(O)c1)C(=O)N[C@@H](Cc1ccc(O)c(O)c1)C(=O)N[C@@H](Cc1ccc(O)c(O)c1)C(=O)N[C@@H](Cc1ccc(O)c(O)c1)C(=O)O [NKC-(G4S)2-DOPA7] (H-APKAMKLLKKLLKLQKKGIGGGGSGGGGS[Dopa][Dopa][Dopa][Dopa][Dopa][Dopa][Dopa]-OH; N-terminus and C-terminus assumed)
- MIC [1]: 16 µM (≈ 64.6 µg/mL)

Compound: APKAMKLLKKLLKLQKKGI [NKC]
- MIC [1]: 1 µM
